Laboratory results reported in patent US20240316074A1 (priority 2021, published 2024).
Values after ≈ are worked out from the molar mass of the structure shown.

Key:
Assay type in all cases: cell-based
[1] = system: SARS-CoV-2 spike pseudotyped lentivirus; assay: organism not typed; details: HEK-293T, read-out: IC50, concentration which reduced pseudovirus infections by half
[2] = system: SARS-CoV-2 variant B.1.351; assay: microbe, parasite or virus in culture; details: Severe acute respiratory syndrome coronavirus 2, Vero C1008
[3] = system: SARS-CoV-2 variant B.1.1.7; assay: microbe, parasite or virus in culture; details: Severe acute respiratory syndrome coronavirus 2, Vero C1008

| SMILES | IC50 [1] [µg/mL] | IC50 [2] [µg/mL] | IC50 [3] [µg/mL] |
| --- | --- | --- | --- |
| C=C(C)[C@@H]1CCC(C)=C[C@H]1c1c(O)cc(CCCCC)c(C(=O)O)c1O [CBDA, Cannabidiolic acid] | 7.7 (≈ 21.5 µM) | 19 (≈ 53 µM) | 11 (≈ 30.7 µM) |
| CCCCCc1cc(O)c(C/C=C(\C)CCC=C(C)C)c(O)c1C(=O)O [CBGA, Cannabigerolic acid] | 8.4 (≈ 23.3 µM) | 37 (≈ 103 µM) | 26 (≈ 72.1 µM) |
